These results are taken from BindingDB's records for patent US12286435 (Bionna (Beijing) Medical Technology, 2025).

In experiment [1] the target is T1, Bromodomain-containing protein 4 [58-164] (Homo sapiens, UniProt O60885).
T1 construct: 58-164
The experiment can be described thus: Determination of the value of binding affinity constant (KO between the compound and BRD4 BD1 protein. The procedure:
The multifunctional microplate reader was a product of TECAN, model: SPARK 10M. Buffer: 100 mM potassium phosphate (pH 6.5), 2% ethylene glycol (Sigma) and 0.01% Trition X-100 (Sigma). The experimental water was Millipore-Q pure water.The specific experimental steps were as follows.First, the compound to be tested was dissolved in ethylene glycol to prepare into a 10 mM standard stock solution. Subsequently, the standard stock solution of the compound to be tested was diluted into a working sample solution with the buffer in an EP tube and ready for use. The concentration of the prepared working sample solution was 5 times of the highest sample concentration required on the test plate (5×test compound solution).[…] of a 5× test compound solution of a sample A was added to wells B1-B3 of a 96-well plate, and 40 μL of a 5× test compound solution of a sample B was added to wells B7-B9 of the 96-well plate, respectively. 20 uL of the buffer was added to the remaining wells, except for wells B1-B3 and B7-B9. Then, 20 uL of a solution was taken from wells B1-B3 to C1-C3, and this 2-fold dilution was repeated from C1-C3 until H4-H6; in the same way, 20 uL of a solution was taken from B7-B9 to C7-C9, this 2-fold dilution was repeated from C7-C9 until H10-H12.

The target of experiment [2] is T2, Bromodomain-containing protein 4 [348-457] (Human, UniProt O60885).
T2 construct: 348-457
The experiment can be described thus: Determination of the value of binding affinity constant (KO between the compound and BRD4 BD2 protein. As for the experimental part: The multifunctional microplate reader was a product of TECAN, model: SPARK 10M. Buffer: 100 mM potassium phosphate (pH 6.5), 2% ethylene glycol (Sigma) and 0.01% Trition X-100 (Sigma). The experimental water was Millipore-Q pure water.The Ki value of the compound and BRD4 BD2 protein was measured according to the FP test procedures for detecting the Ki value of the compound and BRD4 BD1 protein except that the BRD4 BD1 protein was replaced with the BRD4 BD2 protein.

For the compound `CCCCN1CC=C(c2ccc3c(c2)C(Nc2cccc(Cl)c2)CCn2nnc(C)c2-3)CC1` (configuration not stated) [US12286435, Code BH108], the Ki (in general, a dissociation constant, usually derived from enzyme kinetics or from competition with a known ligand) in experiment [1] was determined as 451 nM; in experiment [2], 24.3 nM.

Take `COC(=O)Cc1ccc(NC2CCn3nnc(C)c3-c3ccc(-c4cnn(C)c4)cc32)cc1` (configuration not stated) [US12286435, Code LB38]: the Ki in experiment [1] is 44.8 nM; in experiment [2], 9.29 nM.

Turning to `Cc1nnn2c1-c1ccc(-c3cnn(C)c3)cc1C(Nc1cccc(CCO)c1)CC2` (configuration not stated) [US12286435, Code LB71], the Ki in experiment [1] was determined as 92.2 nM; in experiment [2] it was 30.5 nM.

`COC(=O)Cc1ccccc1NC1CCn2nncc2-c2ccc(-c3cnn(C)c3)cc21` (configuration not stated) [US12286435, Code LB175]: the Ki stood at 43.5 nM in experiment [1] and 18.6 nM in experiment [2].

`Cc1nnn2c1-c1ccc(C3=CCNCC3)cc1C(Nc1c(F)cccc1Cl)CC2` (configuration not stated) [US12286435, Code LC198]: the figures for the Ki in experiment [1] and in experiment [2] were 2980 nM and 153 nM, respectively.

Consider `Cc1nnn2c1-c1ccc(C3=CCOCC3)cc1C(Nc1cccc(Cl)c1)CC2` (configuration not stated) [US12286435, Code LD31], for which the Ki in experiment [1] stood at 39.1 nM; in experiment [2], 17.1 nM.
